Holding throughout (assay type): functional, cell-based
Common to all, as to details: Homo sapiens

The subject of experiment [1] is HepG2. In words: Compound was tested in vitro for growth inhibition of Hep G2, […] cell line.
Experiment [2] has as its system SK-BR-3. The experiment in a line: Compound was tested in vitro for growth inhibition of SK-BR-3, breast adenocarcinoma cell line; Range=4-10 ug/ml.
For experiment [3], the system named is COLO 205. The experiment in a line: Compound was tested in vitro for growth inhibition of COLO 205, colon cell line; Range=4-10 ug/ml.
The test system of another experiment is MOLT-4. In words: Compound was tested in vitro for growth inhibition of Molt-4, leukemia cell line.
Experiment [4] relates to KB. The experiment in a line: Compound was tested in vitro for growth inhibition of KB, oral epidermoid cell line; Range=4-10 ug/ml.
The test system of experiment [5] is KB. The experiment in a line: Compound was tested in vitro for growth inhibition of KB, oral epidermoid cell line.
The test system of experiment [6] is HepG2. The experiment in a line: Compound was tested in vitro for growth inhibition of Hep G2, […] cell line; Range=4-10 ug/ml.
Experiment [7] has as its system HepG2. The experiment in a line: Compound was tested in vitro for growth inhibition of Hep G2, […] cell line.
For experiment [8], the system named is COLO 205. In words: Compound was tested in vitro for growth inhibition of COLO 205, colon cell line.
Experiment [9] relates to SK-BR-3. The experiment in a line: Compound was tested in vitro for growth inhibition of SK-BR-3, […] cell line.

Values after ≈ are worked out from the molar mass of the structure shown. Some results are limits rather than exact numbers.

Take `O=S(=O)(CC#C/C=C\C#CCO)c1ccc2ccccc2c1`: the IC50 in the experiment on HepG2 [1] was over 10 µg/mL; in the experiment with SK-BR-3 [2], 10 µg/mL (≈ 32.2 µM); in the experiment on COLO 205 [3], 10 µg/mL (≈ 32.2 µM); in the experiment on MOLT-4, under 4 µg/mL; with KB [4], 10 µg/mL (≈ 32.2 µM).
As for `O=S(=O)(CC#Cc1cc2ccccc2cc1C#CCO)c1ccccc1`, the half-inhibitory concentration (IC50) is 10 µg/mL (≈ 27.7 µM) in the experiment on KB [5]; 10 µg/mL (≈ 27.7 µM) with SK-BR-3 [2]; 10 µg/mL (≈ 27.7 µM) with COLO 205 [3]; under 4 µg/mL with MOLT-4; 10 µg/mL (≈ 27.7 µM) in the experiment on HepG2 [6].
For `COc1ccc(S(=O)(=O)CC#C/C=C\C#CCO)cc1`, the IC50 was over 10 µg/mL with HepG2 [1], 10 µg/mL (≈ 34.4 µM) in the experiment with SK-BR-3 [2], 10 µg/mL (≈ 34.4 µM) in the experiment on COLO 205 [3] and 10 µg/mL (≈ 34.4 µM) in the experiment with KB [4].
As for `O=S(=O)(CC#C/C=C\C#CCO)c1ccccc1`, the IC50 is 10 µg/mL (≈ 38.4 µM) in the experiment on SK-BR-3 [2], 10 µg/mL (≈ 38.4 µM) with COLO 205 [3], over 10 µg/mL with HepG2 [7] and 10 µg/mL (≈ 38.4 µM) with KB [4].
Consider `O=S(=O)(CC#Cc1ccccc1C#CCO)c1ccccc1`, for which the IC50 is 10 µg/mL (≈ 32.2 µM) with KB [5]; under 4 µg/mL in the experiment on COLO 205 [8]; under 4 µg/mL in the experiment on MOLT-4; under 4 µg/mL in the experiment with SK-BR-3 [9]; 10 µg/mL (≈ 32.2 µM) in the experiment with HepG2 [6].
Consider `COC(=O)c1ccccc1S(=O)(=O)CC#C/C=C\C#CCO`, for which the IC50 in the experiment on HepG2 [1] is over 10 µg/mL; in the experiment on SK-BR-3 [2], 10 µg/mL (≈ 31.4 µM); with COLO 205 [3], 10 µg/mL (≈ 31.4 µM); in the experiment on KB [4], 10 µg/mL (≈ 31.4 µM).
`O=S(=O)(CC#Cc1ccccc1C#CCO)c1ccc2ccccc2c1` displayed a 50% inhibitory concentration (IC50) in the experiment with HepG2 [1] of under 4 µg/mL.

What is called IC50 is the concentration that gives 50% inhibition.

The values above are taken from ChEMBL document CHEMBL1128998, “Chemical synthesis, DNA cleavage and antitumor activity of molecules with (Z)-7-sulfonyl-3-hexene-1,5-diyne functionalities” (Bioorg Med Chem Lett, 1996).
